The text below walks through data of publication PMC6337261, “Short Peptides with Uncleavable Peptide Bond Mimetics as Photoactivatable Caspase-3 Inhibitors” (Molecules, 2019).

In data set [1] the test system is caspase-3. The data set is described as follows: Gel-based competitive ABPP on recombinant caspase-3. The settings on record: for Inhibition of caspase-3 activity (caspase ABP labeling): PBS with 1 mM DTT, fluorescent ABP read-out on gel; for Inhibition of caspase-3 (competitive ABPP, Figure S1): triazolo peptides at 100 μM. The class given is biochemical. The procedure:
(§1) To check whether our probes function as inhibitors, competitive ABPP [28] was performed. Recombinant caspase-3 was incubated with probes 9a–10c, 11a and 12a with or without irradiation at 365 nm, followed by labeling of residually active caspase-3 with the fluorescent, caspase-directed activity-based probe (ABP) SV149, a tetramethylrhodamine derivative of KMB-01 [29]. Caspase activity itself was not affected by UV irradiation, as shown by bands of equal intensity with and without UV light (Figure 2A). […] To confirm inhibition, we also performed substrate cleavage assays using the fluorogenic aminomethyl coumarin substrate Ac-DEVD-AMC. […] Inhibition of active caspases could also be achieved in an apoptotic cell lysate (Figure 2D).
(§2) Caspase-3, produced in E. coli and purified as described before, was reacted in PBS with 1 mM DTT. Samples were combined with the indicated probe and irradiated with a handheld UV lamp at 365 nm for 30 min at room temperature. For competition experiments with ‘pre-activation,’ the indicated probes were irradiated for 30 min prior to addition to caspase-3, and incubated for an additional 30 min. Next, ABP 13 was added (final concentration 1 μM) to label residual caspase-3 activity. The samples were incubated for 30 min at room temperature, after which 1/3rd volume of 4× Laemmli buffer was added. Samples were heated at 95 °C for 2 min and resolved by 15% SDS-PAGE. Gels were scanned using a Typhoon Trio+ fluorescent scanner with excitation at 532 nm and an emission filter of 580 nm. Gel images were processed with ImageJ (background subtraction with rolling ball radius of 50 pixels and automated contrast adjustment).
(§3) Figure 2 Inhibition of caspase-3. (A) Competitive activity-based protein profiling (ABPP) experiments using ψ(CH2NH) or triazolo peptide derivatives 9–12 with or without irradiation. Compounds 9a–12a were used at 10 μM final concentration, 9b, 9c, 10b and 10c at 100 μM. Inh = caspase inhibitor biotin-DEVD-AOMK, used at 100 nM concentration. (B) Representative progress curves of fluorescence produced by Ac-DEVD-AMC (50 μM) cleavage by caspase-3, irradiated with or without 10 μM of the indicated compounds. (C) Bar graph of residual caspase-3 activity of replicate experiments (n = 2) of those in (B). (D) Inhibition of executioner’s caspase-3 and -7 in lysates of HEK293 cells, treated with cytochrome c/dATP to induce apoptosis.

The test system of data set [2] is caspase-3. The experiment in a line: Competitive ABPP with UV pre-activation of the probes. It counts as biochemical. The settings on record: compound irradiated at 365 nm for 30 min, light source removed, then added to caspase-3 for 30 min; fluorescent ABP read-out. The procedure:
(§4) Compounds were irradiated with UV light of 365 nm for 30 min and after removal of the light source added to caspase-3. Residual caspase activity was measured by using a fluorescent caspase ABP as in our previous experiments above.
as §2
(§5) Figure 3 Non-covalent inhibition of caspase-3 by compounds 9 and 10. (A) Fluorescent labeling of caspase-3 by ψ(CH2NH) peptides 9–10 and triazolo peptides 11–12. […] (B) Deconvoluted ESI-MS of caspase-3. (C) Deconvoluted ESI-MS of caspase-3 after incubation with covalent activity-based probe (ABP) 13. Note that the active site, located on the large subunit, is modified. (D) Deconvoluted ESI-MS of caspase-3 after irradiation in the presence of benzophenone ψ(CH2NH) 10a, not resulting in covalent modification. […] (F) Structures of ψ(CH2NH) peptides 14 and 15 without photocrosslinker. (G) UV irradiation of ψ(CH2NH) peptides 14 and 15 in the presence of benzophenone leads to inhibition of caspase-3, as monitored by competitive ABPP. […] Ac-DEVD-aldehyde (100 nM) was used as a control compound, whereas 9a and 10a (10 μM) were irradiated for 10 min and reacted with sodium bisulfite for an additional 20 min before 30 min incubation with caspase-3 and read-out with a fluorescent caspase ABP.

A short description of data set [3]: LC-MS analysis of probes before and after UV irradiation. The class given is physicochemical. The conditions noted are these: irradiation at 365 nm, gradient 10% to 95% acetonitrile with 0.1% formic acid. The procedure: as §4
(§6) Although this points towards a cyclization rather than reaction with a water molecule, it is not clear whether it leads to a potent caspase inhibitor. […] Therefore, cyclization seemed improbable, as this would most likely lead to a shift in retention time. We hypothesized that irradiation could potentially lead to oxidation of a very small amount of the ψ(CH2NH) moiety with benzophenone as a photosensitizer, resulting in minute quantities of aldehydes that were not detected on LC-MS, but were sufficient for caspase-3 inhibition. Oxidation of secondary amines under influence of benzophenone has been reported before. […] Note that triazoles cannot undergo this transformation, further explaining their inactivity. The oxidation hypothesis was supported by an experiment in which ψ(CH2NH) peptides 14 and 15, not containing a benzophenone, were irradiated in the presence of 1 eq of spiked-in benzophenone (Figure 3G–I).
All materials were purchased from Sigma Aldrich GmbH (GmbH, Darmstadt, Germany), Carl Roth GmbH + Co. KG (Karlsruhe, Germany), Thermo Fischer Scientific Inc. (Dreieich, Germany), Rapp Polymere GmbH (Tübingen, Germany), Applichem GmbH (Darmstadt, Germany), VWR International GmbH (Darmstadt, Germany), Merck KGaA (Darmstadt, Germany), CreoSalus Inc. (Louisville, KY, USA), and Iris Biotech GmbH (Marktredwitz, Germany) and were used as received, unless otherwise noted. TLC was performed on pre-coated ALUGRAM SIL G plates with detection by a handheld UV lamp (254 nm) and subsequent staining with potassium permanganate, p-anisaldehyde, ninhydrin or cerium ammonium molybdate. LC-MS analysis was performed on a Thermo LCQ Fleet HPLC-MS/MS system using a gradient of 10% to 95% acetonitrile containing 0.1% formic acid. NMR spectra were recorded on a Bruker Avance DRX 400 spectrometer with tetramethylsilane as internal standard. High resolution ESI-FTMS was performed on a Thermo Scientific LTQ Orbitrap Velos Pro mass spectrometer.

Data set [4] has as its system caspase-3. The data set is described as follows: Competitive ABPP with ψ(CH2NH) peptides irradiated in presence of spiked-in benzophenone. The class given is biochemical. The settings on record: for Inhibition of caspase-3 after irradiation with benzophenone: irradiated in presence of an equimolar amount (1 eq) of benzophenone.
Description: (§7) The presence of a ψ(CH2NH) peptide with benzophenone or UV irradiation alone was not sufficient for inhibition, but all needed to be present to block the caspase-3 active site (Figure 3G,H). We hypothesized that the active species is a peptide aldehyde, formed by oxidation of the ψ(CH2NH) moiety (see also discussion in Section 3). To support this hypothesis, we performed an experiment in which this aldehyde was trapped by sodium bisulfite, forming a sodium bisulfite adduct.
as §6
Caspase-3, produced in E. coli and purified as described before, was reacted in PBS with 1 mM DTT. Samples were combined with the indicated probe and irradiated with a handheld UV lamp at 365 nm for 30 min at room temperature. […]
Figure 3 Non-covalent inhibition of caspase-3 by compounds 9 and 10. […] (G) UV irradiation of ψ(CH2NH) peptides 14 and 15 in the presence of benzophenone leads to inhibition of caspase-3, as monitored by competitive ABPP. […] Ac-DEVD-aldehyde (100 nM) was used as a control compound, whereas 9a and 10a (10 μM) were irradiated for 10 min and reacted with sodium bisulfite for an additional 20 min before 30 min incubation with caspase-3 and read-out with a fluorescent caspase ABP.

Data set [5] deals with caspase-3. The data set is described as follows: Competitive ABPP with bisulfite aldehyde quenching. It counts as biochemical.
Description: as §7
Compounds were incubated with or without irradiation (10 min) in PBS with or without 10 mM NaHSO3 and incubated for another 20 min before addition to caspase-3. After 30 min, ABP 13 was added (final concentration 1 μM) to label residual caspase activity. The samples were incubated for 30 min at room temperature, after which 1/3rd volume of 4× Laemmli buffer was added. Samples were processed in the same way as under Section 4.4.1.
as §5

Data set [6] relates to caspase-3. The experiment in a line: Fluorogenic substrate (Ac-DEVD-AMC) cleavage assay. It counts as biochemical. The settings on record: 10 μM compound, 2 nM caspase-3, 50 μM Ac-DEVD-AMC, HEPES pH 7.4 with 10 mM DTT, n = 2. The procedure:
as §1
Purified caspase-3 (2 nM) was pre-activated by incubating in caspase reaction buffer (20 mm HEPES pH 7.4, 100 mM NaCl, 1 mM EDTA, 10% sucrose (w/v), 0.1% CHAPS (w/v), 10 mM DTT) for 15 min at 37 °C. Inhibitors 9a, 10a, and DMSO (control) were incubated with the caspase-3 at 10 μM final concentration. One set was irradiated with a handheld UV lamp at 365 nm for 30 min at room temperature whereas the control set was not irradiated. After 30 min, 99 μL of the sample was added to 1 μL of Ac-DEVD-AMC fluorogenic substrate (5 mM in dmso; 50 μM final concentration) in a black 96 well plate. The fluorescence intensity was read using an iD3 SpectraMax platereader (Molecular Devices; excitation wavelength: 340 nm; emission wavelength: 475 nm). The experiment was performed in duplicate. Activity was determined as the slope from the linear part of the progress curve by using GraphPad Prism.
as §3

[7] abbreviates: 10 μM compound, irradiated at 365 nm for 30 min at room temperature.
The mark [8] stands for this setting: 100 μM compound, irradiated at 365 nm for 30 min at room temperature.
Setting [9] is: 100 μM compound, non-irradiated.

Consider “Hexynoyl-Asp-Glu-Val-Asp(triazolo)-Ala-Bpa-Gly-NH2 [12a]”, for which the “Inhibition of caspase-3 activity (caspase ABP labeling)” value (shortened to “Inhibition of caspase-3 activity”) with caspase-3 [1] (setting [7]) is “some inhibition”. In the data set with caspase-3 [1], the “Inhibition of caspase-3 (competitive ABPP, Figure S1)” value is given as “inhibition that is nearly quantitative”.
In the case of “Hexynoyl-Asp-Glu-Val-Aspψ(CH2NH)-Ala-p-azido-Phe-NH2 [10c]”, the “Inhibition of caspase-3 activity” value in the data set with caspase-3 [1] (setting [8]) is listed as “did not show any inhibition”.
As to “Hexynoyl-photoLeu-Asp-Glu-Val-Aspψ(CH2NH)-Ala-NH2 [9b]”, the entries for the “Inhibition of caspase-3 activity” value with caspase-3 [1] (setting [8]) and with caspase-3 [1] (setting [9]) were “complete inhibition” and “no decrease in caspase ABP labeling”, respectively. Further, the “Inhibition of caspase-3 after UV pre-activation of compound” value (“Inhibition … of compound” below) in the data set with caspase-3 [2] is on record as “still inhibited”. Besides, the “Change of probe upon UV irradiation (LC-MS before and after)” value (from here on “Change of probe upon UV irradiation”) in data set [3] is reported as “loss of nitrogen”.
Take “Hexynoyl-Asp-Glu-Val-Aspψ(CH2NH)-Ala-photoLeu-NH2 [10b]”: the “Inhibition of caspase-3 activity” value in the data set with caspase-3 [1] (setting [8]) was “complete inhibition”; in the data set on caspase-3 [1] (setting [9]) it was “no decrease in caspase ABP labeling”. Further, the “Inhibition … of compound” value with caspase-3 [2] is given as “still inhibited”. For the same substance, the “Change of probe upon UV irradiation” value in data set [3] was “loss of nitrogen”.
As for “Hexynoyl-Bpa-Asp-Glu-Val-Asp(triazolo)-Ala-NH2 [11a]”, the “Inhibition of caspase-3 activity” value with caspase-3 [1] (setting [7]) is recorded as “did not”. For the same substance, the “Inhibition of caspase-3 (competitive ABPP, Figure S1)” value in the data set on caspase-3 [1] is reported as “not show efficient inhibition”.
As for “Hexynoyl-Asp-Glu-Val-Aspψ(CH2NH)-Ala-NH2 [compound 15]”, the “Inhibition of caspase-3 after irradiation with benzophenone” value in the data set with caspase-3 [4] is on record as “still led to inhibition”.
“Acetyl-Asp-Glu-Val-Aspψ(CH2NH)-Ala-NH2 [compound 14]”: the “Inhibition of caspase-3 after irradiation with benzophenone” value in the data set with caspase-3 [4] is given as “still led to inhibition”. In addition, in the data set on caspase-3 [4] (with or without benzophenone (BP) and UV irradiation), the “Requirement for inhibition of caspase-3” value is “needs both BP and UV irradiation”.
For “Ac-DEVD-aldehyde [Ac-DEVD peptide aldehyde, reference compound]”, the “Inhibition of caspase-3” value with caspase-3 [5] (100 nM, without bisulfite, 30 min incubation with caspase-3, fluorescent ABP read-out) was “efficiently inhibits caspase-3”.
For “Hexynoyl-p-azido-Phe-Asp-Glu-Val-Aspψ(CH2NH)-Ala-NH2 [9c]”, the “Inhibition of caspase-3 activity” value in the data set on caspase-3 [1] (setting [8]) is “did not show any inhibition”.
“Hexynoyl-Bpa-Asp-Glu-Val-Aspψ(CH2NH)-Ala-NH2 [9a]”: the “Inhibition of Ac-DEVD-AMC cleavage by caspase-3” value with caspase-3 [6] (irradiated at 365 nm for 30 min at room temperature) is listed as “complete blockage of substrate processing”; in the data set with caspase-3 [6] (not irradiated) it was “little to no inhibition”. Moreover, the “Inhibition of caspase-3 activity” value is listed as “complete inhibition” in the data set with caspase-3 [1] (setting [7]) and “no decrease in caspase ABP labeling” in the data set on caspase-3 [1] (10 μM compound, non-irradiated). Besides, the “Inhibition … of compound” value in the data set with caspase-3 [2] is listed as “still inhibited”. For the same substance, the “Inhibition of caspase-3 by irradiated sample exposed to sodium bisulfite” value in the data set with caspase-3 [5] (10 μM, irradiated 10 min, reacted with 10 mM NaHSO3 for 20 min, then 30 min with caspase-3, fluorescent ABP read-out) is reported as “lose their inhibitory capacity”. The “Change of probe upon UV irradiation” value in data set [3] is on record as “did not show obvious changes”.
